Patent US20250171556A1, “MULTISPECIFIC ANTIBODIES FOR TREATING CD47-ASSOCIATED DISEASES” (Virtuoso BINco, Inc., priority 2021, published 2025)

Legend:
DLD-1 tumor cells = assay: DLD-1 colorectal cancer xenograft model; assay type: in vivo, mouse; details: 5 doses, irinotecan 30 mg/kg ip twice per week
Method: DLD-1 tumor cells were cultured in RPMI 1640 medium supplemented with 10% FBS at 37° C. in an atmosphere of 5% CO2 in air. Female Balb/c nude mice (Shanghai Lingchang Laboratory Animal Technology Co., Ltd.) of 6-8 weeks in age were inoculated subcutaneously with 5×10^6 cells in 0.1 mL PBS for tumor development. Once the average tumor volume reached approximately 150-200 mm^3, the animals were randomized to 6 animals per group and started treatment. Oxaliplatin and 5-fluorouracil (5-FU) were administered through intraperitoneal injection three times per week at a dose of 8 mg/kg and 35 mg/kg, respectively. A total of 4 doses of oxaliplatin and 5 doses of 5-FU were given. Irinotecan was administered through intraperitoneal injection twice per week at a dose of 30 mg/kg for a total of 6 doses. CD47×EpCAM_v5 bispecific antibody was administered through bolus tail vein injection at 20 mg/kg weekly for a total of 5 doses. For the combination groups, the route and dosing schedule were the same as in the single agent treatment groups. Tumor volume was measured twice weekly.
DLD-1 xenograft model was established as described in Example 13. Treatment was initiated once the average tumor volume reached approximately 150-200 mm^3. Irinotecan was administered through intraperitoneal injection twice per week at a dose of 30 mg/kg for a total of 5 doses. […]

Hep3B2.1-7 tumor cells = assay: Hep3B2.1-7 hepatocellular carcinoma xenograft model; assay type: in vivo, mouse; details: CD47×EpCAM_v5 20 mg/kg iv weekly, 4 doses, irinotecan 15 mg/kg ip twice per week
Method: Hep3B2.1-7 tumor cells were cultured in EMEM medium supplemented with 10% FBS at 37° C. in an atmosphere containing 5% CO2 in air. Female Balb/c nude mice (Shanghai Lingchang Laboratory Animal Technology Co., Ltd.) of 6-8 weeks in age were inoculated subcutaneously with 8×10^6 cells in 0.1 mL of PBS for tumor development. Once the average tumor volume reached approximately 150-200 mm^3, the animals were randomized to 6 animals per group and started treatment. Irinotecan was administered through intraperitoneal injection twice per week at a dose of 15 mg/kg for a total of 4 doses. CD47×EpCAM_v5 bispecific antibody was administered through bolus tail vein injection at 20 mg/kg weekly for a total of 4 doses. Combination groups followed the same dosing schedule and route of administration as their corresponding monotherapy groups. Tumor volume was measured twice weekly.

## CCc1c2c(nc3ccc(OC(=O)N4CCC(N5CCCCC5)CC4)cc13)-c1cc3c(c(=O)n1C2)COC(=O)[C@]3(O)CC [irinotecan, reference compound]
DLD-1 tumor cells; CD47×EpCAM_v5 20 mg/kg iv weekly, 6 doses
  Tumor growth in DLD-1 model, single agent (Example 13): not very effective
DLD-1 tumor cells; antibodies 20 mg/kg iv weekly
  Tumor growth in DLD-1 model, single agent (Example 14): partial tumor growth inhibition
Hep3B2.1-7 tumor cells
  Tumor growth in Hep3B2.1-7 model, single agent: slowed tumor growth but did not inhibit it
